Laboratory results as given in patent US9855243B2, “Topical anti-inflammatory pharmaceutical composition with zileuton cream formulation” (Qurient Co., Ltd., priority 2013, dated 2018).

Key:
[1] = Solution stability test of zileuton in solvents (TRS %); assay type: physicochemical; details: for TRS increase rate %: Day 0 to Day 8
Protocol: In the solution stability test, suitability with solvents for solubilizing zileuton (ethanol, PEG400, propylene glycol, hexylene glycol, capryol 90, benzyl alcohol, water) was screened.
As a result, as illustrated in Tables 2 and 3 below, most of the solvents were suitable to zileuton under the 25° C. condition, but were unstable under the condition of 40° C. or 70° C.

[2] = Solubility of zileuton in solvents at 25° C.(RT); assay type: physicochemical
Excerpt: Furthermore, the suitability of other various solvents for solubilizing zileuton was screened. […] Especially, hydrophilics solvents such as alcohols may be preferably used.

[3] = test system: Delayed Type Hypersensitivity Reaction in mouse induced by DNFB; experiment: Mouse atopic dermatitis model, DNFB-induced ear inflammation; assay type: in vivo, BALB/c mouse; details: ear tissues after day 5 stimulation
Protocol: According to an embodiment of the present invention, the medical effect of the cream type topical pharmaceutical composition has been verified in a Delayed Type Hypersensitivity Reaction in mouse induced by DNFB. The test article was applied to a mouse's skin 3 times a day, and then the medical effect was measured. Furthermore, an excess amount of the zileuton was injected using a non-optimized test vehicle, acetone.
For this purpose, BALB/c mice were divided into […], each consisting of 10 mice. The groups were divided into a vehicle (acetone), positive control group (dexamethasone 0.05 mg/ear; Dex), and zileuton groups ([…]). And the zileuton groups were divided into cases where acetone (1 mg/ear) and the cream formulation of […] (0.2 mg/ear and 0.02 mg/ear) were used, respectively.
Then, on day 5, 20 μl of 0.3% DNFB was applied once again to cause inflammation in the ears. Then, dexamethasone and zileuton dissolved in acetone vehicle were applied to the ears at 1 hour, 6 hours, and 23 hours after the stimulation on day 5. Thicknesses of the ears were measured at 24 hours after the stimulation on day 5, and then ear tissues were taken for histopathological observation.

[4] = test system: liver functions of the patient; details: oral administration; cited from earlier work

CC(c1cc2ccccc2s1)N(O)C(N)=O (racemic) [Zileuton, (±)-1-(1-(benzo [b]thiophen-2-yl)ethyl)-1-hydroxyurea]
TRS (%) ([1]; in Benzyl alcohol, 25° C., Day 0): 1.642% | TRS increase rate % ([1]; in Benzyl alcohol, 25° C.): 0.381% | TRS (%) ([1]; in Benzyl alcohol, 25° C., Day 1): 0.869% | TRS (%) ([1]; in Benzyl alcohol, 25° C., Day 3): 1.806% | TRS (%) ([1]; in Benzyl alcohol, 25° C., Day 8): 2.023% | TRS (%) ([1]; in Benzyl alcohol, 70° C., Day 0): 1.642% | TRS increase rate % ([1]; in Benzyl alcohol, 70° C.): 22.608% | TRS (%) ([1]; in Benzyl alcohol, 70° C., Day 1): 11.350% | TRS (%) ([1]; in Benzyl alcohol, 70° C., Day 3): 20.397% | TRS (%) ([1]; in Benzyl alcohol, 70° C., Day 8): 24.250% | TRS (%) ([1]; in Capryol 90, 25° C., Day 0): 1.623% | TRS increase rate % ([1]; in Capryol 90, 25° C.): 0.578% | TRS (%) ([1]; in Capryol 90, 25° C., Day 1): 1.444% | TRS (%) ([1]; in Capryol 90, 25° C., Day 3): 1.478% | TRS (%) ([1]; in Capryol 90, 25° C., Day 8): 2.201% | TRS (%) ([1]; in Capryol 90, 70° C., Day 0): 1.623% | TRS increase rate % ([1]; in Capryol 90, 70° C.): 74.822% | TRS (%) ([1]; in Capryol 90, 70° C., Day 1): 10.312% | TRS (%) ([1]; in Capryol 90, 70° C., Day 3): 39.603% | TRS (%) ([1]; in Capryol 90, 70° C., Day 8): 76.445% | TRS (%) ([1]; in Ethanol, 25° C., Day 0): 1.255% | TRS increase rate % ([1]; in Ethanol, 25° C.): 0.882% | TRS (%) ([1]; in Ethanol, 25° C., Day 1): 1.014% | TRS (%) ([1]; in Ethanol, 25° C., Day 3): 1.951% | TRS (%) ([1]; in Ethanol, 25° C., Day 8): 2.137% | TRS (%) ([1]; in Ethanol, 40° C., Day 0): 1.255% | TRS increase rate % ([1]; in Ethanol, 40° C.): 3.449% | TRS (%) ([1]; in Ethanol, 40° C., Day 1): 1.778% | TRS (%) ([1]; in Ethanol, 40° C., Day 3): 2.375% | TRS (%) ([1]; in Ethanol, 40° C., Day 8): 4.704% | TRS (%) ([1]; in Hexylene glycol, 25° C., Day 0): 1.505% | TRS increase rate % ([1]; in Hexylene glycol, 25° C.): 0.475% | TRS (%) ([1]; in Hexylene glycol, 25° C., Day 1): 1.448% | TRS (%) ([1]; in Hexylene glycol, 25° C., Day 3): 1.583% | TRS (%) ([1]; in Hexylene glycol, 25° C., Day 8): 1.980% | TRS (%) ([1]; in Hexylene glycol, 70° C., Day 0): 1.505% | TRS increase rate % ([1]; in Hexylene glycol, 70° C.): 58.847% | TRS (%) ([1]; in Hexylene glycol, 70° C., Day 1): 8.061% | TRS (%) ([1]; in Hexylene glycol, 70° C., Day 3): 29.999% | TRS (%) ([1]; in Hexylene glycol, 70° C., Day 8): 60.352% | TRS (%) ([1]; in Polyethylene glycol (PEG-400), 25° C., Day 0): 1.427% | TRS increase rate % ([1]; in Polyethylene glycol (PEG-400), 25° C.): 2.638% | TRS (%) ([1]; in Polyethylene glycol (PEG-400), 25° C., Day 1): 1.491% | TRS (%) ([1]; in Polyethylene glycol (PEG-400), 25° C., Day 3): 2.897% | TRS (%) ([1]; in Polyethylene glycol (PEG-400), 25° C., Day 8): 4.065% | TRS (%) ([1]; in Polyethylene glycol (PEG-400), 70° C., Day 0): 1.427% | TRS increase rate % ([1]; in Polyethylene glycol (PEG-400), 70° C.): 95.715% | TRS (%) ([1]; in Polyethylene glycol (PEG-400), 70° C., Day 1): 43.725% | TRS (%) ([1]; in Polyethylene glycol (PEG-400), 70° C., Day 3): 94.366% | TRS (%) ([1]; in Polyethylene glycol (PEG-400), 70° C., Day 8): 97.142% | TRS (%) ([1]; in Propylene glycol, 25° C., Day 0): 1.457% | TRS increase rate % ([1]; in Propylene glycol, 25° C.): 0.675% | TRS (%) ([1]; in Propylene glycol, 25° C., Day 1): 1.624% | TRS (%) ([1]; in Propylene glycol, 25° C., Day 3): 1.478% | TRS (%) ([1]; in Propylene glycol, 25° C., Day 8): 2.132% | TRS (%) ([1]; in Propylene glycol, 70° C., Day 0): 1.457% | TRS increase rate % ([1]; in Propylene glycol, 70° C.): 94.868% | TRS (%) ([1]; in Propylene glycol, 70° C., Day 1): 26.382% | TRS (%) ([1]; in Propylene glycol, 70° C., Day 3): 82.228% | TRS (%) ([1]; in Propylene glycol, 70° C., Day 8): 96.325% | TRS (%) ([1]; in Water, 25° C., Day 0): 1.424% | TRS increase rate % ([1]; in Water, 25° C.): 0.541% | TRS (%) ([1]; in Water, 25° C., Day 1): 1.879% | TRS (%) ([1]; in Water, 25° C., Day 3): 1.816% | TRS (%) ([1]; in Water, 25° C., Day 8): 1.965% | TRS (%) ([1]; in Water, 70° C., Day 0): 1.424% | TRS increase rate % ([1]; in Water, 70° C.): 90.570% | TRS (%) ([1]; in Water, 70° C., Day 1): 35.171% | TRS (%) ([1]; in Water, 70° C., Day 3): 80.268% | TRS (%) ([1]; in Water, 70° C., Day 8): 91.994% | Zileuton Solubility at RT (% w/w) ([2]; in Caprylocaproyl Polyoxyl-8 Glycerides/Labrasol): 10.81-11.42 % w/w | Zileuton Solubility at RT (% w/w) ([2]; in Castor Oil): <0.16 % w/w | Zileuton Solubility at RT (% w/w) ([2]; in Cyclomethicone): <0.06 % w/w | Zileuton Solubility at RT (% w/w) ([2]; in Diethylene Glycol Monoethyl Ether/Transcutol P): 17.11-17.62 % w/w | Zileuton Solubility at RT (% w/w) ([2]; in Dimethicone): <0.06 % w/w | Zileuton Solubility at RT (% w/w) ([2]; in Isopropyl Myristate): <0.20 % w/w | Zileuton Solubility at RT (% w/w) ([2]; in Light Mineral Oil): <0.04 % w/w | Zileuton Solubility at RT (% w/w) ([2]; in Medium Chain Triglycerides): <0.21 % w/w | Zileuton Solubility at RT (% w/w) ([2]; in Olive Oil): <0.07 % w/w | Zileuton Solubility at RT (% w/w) ([2]; in Polyglyceryl-6 Dioleate): <0.06 % w/w | Zileuton Solubility at RT (% w/w) ([2]; in Polyglyceryl-10 Mono/Dioleate/Caprol PGE-860): <0.16 % w/w | Zileuton Solubility at RT (% w/w) ([2]; in Polyoxyethylene (20) Sorbitan Monolaurate/Tween 20): 8.42-9.24 % w/w | Zileuton Solubility at RT (% w/w) ([2]; in Polyoxyl 40 Hydrogenated Castor Oil/Kolliphor RH40): <0.37 % w/w | Zileuton Solubility at RT (% w/w) ([2]; in Propylene Glycol Dicaprylocaprate): <0.20 % w/w | Zileuton Solubility at RT (% w/w) ([2]; in Safflower Oil): <0.07 % w/w | Zileuton Solubility at RT (% w/w) ([2]; in Squalane): <0.04 % w/w | Zileuton Solubility at RT (% w/w) ([2]; in Triacetin): 0.50-0.72 % w/w | Histopathological observation, anti-inflammation function [3]: excellent anti-inflammation function | Hepatotoxicity [4]: significant hepatotoxicity
